{"source": "patent US20050170345A1", "about": "“Neuroglobin is up-regulated by and protects neurons from hypoxic-ischemic injury” (priority 2001, published 2005)", "type_in_all_cases": "cell-based, mouse", "key": {"[1]": {"test_system": "17-20 kDa caspase-3 cleavage product", "experiment": "Caspase-3 cleavage product immunofluorescence in ODN-transfected cortical neurons", "conditions": "fluorescence microscopy, hypoxic cortical neurons", "experimental": "Cultures were fixed with 4% paraformaldehyde and incubated over night at 4° C. with one or more of the following primary antibodies: rabbit polyclonal anti-Ngb (1:200), mouse monoclonal anti-NeuN (1:200, Chemicon), and rabbit polyclonal anti-17-20 kDa caspase-3 cleavage product (1:100, New England Biolabs). The secondary antibodies (all 1:200) were fluorescein isothiocyanate-conjugated goat anti-rabbit or anti-mouse IgG (Vector) and rhodamine-conjugated donkey anti-rabbit IgG (Jackson ImmunoResearch). Controls for non-specific binding included omitting primary (FIG. 1C) or secondary antibodies. In addition, in some cultures, nuclei were labeled with 4′,6-diamidino-2-phenylindole (DAPI) or DNA strand breaks were labeled with the Klenow fragment of DNA polymerase I (Roche) followed by rhodamine avidin D (Vector), as described (Jin et al. (1999) J Neurochem 72: 1204-1214). Fluorescence signals were detected with a Nikon E800 epifluorescence microscope using excitation/emission wavelengths of 535/565 nm for rhodamine (red), 470/505 nm for fluorescein isothiocyanate (green) and 360/400 nm for DAPI (blue). Results were recorded with a Magnifire digital color camera (Optronics). […]"}, "Ngb mRNA": {"test_system": "Ngb mRNA", "experiment": "Ngb protein expression in cultured cortical neurons transfected with antisense/sense ODN (Western blot)", "conditions": "ODN-transfected cortical neurons vs sense-transfected or untransfected control cultures", "experimental": "Cell lysates were prepared as described (Jin et al. (2000) Proc. Natl. Acad. Sci. U.S.A. 97: 10242-10247) and 100-μg protein samples were electrophoresed on 12% SDS-PAGE gels and transferred to polyvinyldifluoridine membranes. Membranes were incubated overnight at 4° C. with a rabbit polyclonal antibody against Ngb (1:2000), which was produced by immunizing with a synthetic peptide corresponding to amino-acids 35-50 (NH2-CLSSPEFLDHIRKVML-COOH, , SEQ ID NO:1) of mouse Ngb, and affinity-purified using a Sulfolink kit (Pierce). A horseradish peroxidase-conjugated anti-rabbit secondary antibody (Santa Cruz Biotechnology) and a chemiluminescence substrate system (NEN) were used to visualize the immunolabeled bands (Id.).\n(§1) A phosphorothioate antisense ODN labeled with fluorescein at the 5′ end and directed against the initial coding region of the target Ngb mRNA (5′-TCC GGG CGC TCC AT-3′, from nucleotides 90-77, SEQ ID NO:2)was designed based on the mouse Ngb sequence obtained from Genbank (accession number NM 022414). […] Cultures were analyzed by Western blotting and by MTT cell viability assay, and fluorescence microscopy was used to confirm transfection and examine its relationship to cell death, using caspase-3 activation as a marker."}, "[2]": {"test_system": "cultured cortical neurons", "experiment": "Cell viability (MTT absorbance, trypan blue exclusion) of ODN-treated cultured cortical neurons", "experimental": "Neuronal cultures were prepared from the cerebral hemispheres of 16-day Charles River CD1 mouse embryos, seeded at 3×10^5 cells per well on 24-well culture dishes precoated with poly-D-lysine, and grown in Eagle's minimal essential medium (GIBCO BRL) with 5% horse serum and 5% fetal bovine serum (Jin et al. (2000) Proc. Natl. Acad. Sci. U.S.A. 97: 10242-10247). Cultures were treated with 10 μM cytosine arabinoside on day 6 and used on day 11, when >95% of cells expressed the neuronal marker, microtubule-associated protein 2. […] Cell viability was assayed by incubating cultures with 5 mg/ml of 3-(4,5-dimethylthiazol-2-yl)-2,5-diphenyl tetrazolium bromide (MTT) at 37° C. for 2 h and measuring absorbance at 570 nm in solubilized cells using a Cytofluor Series 4000 multi-well plate-reader (PerSeptive Biosystems). […]\nas §1"}, "[3]": {"test_system": "cultured cortical neurons", "experiment": "Transfection efficiency of fluorescent ODN in cortical neuron cultures", "conditions": "fluorescent Ngb antisense ODN, DAPI counterstain, n=10", "excerpt": "A phosphorothioate antisense ODN labeled with fluorescein at the 5′ end and directed against the initial coding region of the target Ngb mRNA (5′-TCC GGG CGC TCC AT-3′, from nucleotides 90-77, SEQ ID NO:2)was designed based on the mouse Ngb sequence obtained from Genbank (accession number NM 022414). This and a sense sequence (5′-ATG GAG CGC CCG GA-3′, SEQ ID NO:3), from nucleotides 77-90) were synthesized commercially (Operon Technologies) and purified by HPLC. Cultures were transfected with ODNs (1-10 μM) using FuGENE 6 (Roche), beginning 3 h before the onset of hypoxia. Cultures were analyzed by Western blotting and by MTT cell viability assay, and fluorescence microscopy was used to confirm transfection and examine its relationship to cell death, using caspase-3 activation as a marker.\nTo begin to investigate the possibility that Ngb protects neurons from hypoxia, cultured neurons were transfected with a phosphorothioate antisense ODN directed against the initial coding region of the target Ngb mRNA (5′-TCC GGG CGC TCC AT-3′, from nucleotides 90-77, SEQ ID NO:4) or with a control sense sequence (5′-ATG GAG CGC CCG GA-3′, from nucleotides 77-90, SEQ ID NO:5), both labeled with fluorescein at the 5′ end. Transfection efficiency, measured in cultures transfected with the fluorescent Ngb antisense ODN and counterstained with DAPI, was 96±1% (n=10). […]"}}, "note": "“Also recorded” adds a separate entry of the source. {Fluorescein} = fluorescein label", "data": [{"substance": "5′-TCC GGG CGC TCC AT-3′ (antisense TCCGGGCGCTCCAT; DNA, all phosphorothioate, 5' {Fluorescein}, methylation of C not given here) [antisense ODN]", "values": [{"measurement": "transfected cells co-expressing the 17-20 kDa caspase-3 cleavage product", "setting": "[1]", "result": "many"}, {"measurement": "Ngb protein expression", "setting": "Ngb mRNA", "result": "reduced; also recorded: decreased Ngb expression"}, {"measurement": "effect on the toxicity of staurosporine or SNP", "setting": "[2]; 0.1 μM staurosporine or 200-400 μM SNP, 12 h, 5 μM ODN", "result": "no effect"}, {"measurement": "viability of cultured neurons exposed to hypoxia", "setting": "[2]; 12 h without oxygen, 5 μM ODN added 3 h prior, MTT absorbance or trypan blue exclusion", "result": "decrease in the viability"}, {"measurement": "Transfection efficiency", "setting": "[3]", "result": "96±1", "unit": "%"}]}]}
